In PMC4092041 (Journal of cardiovascular pharmacology, 2014):

How the values were obtained:
[1] = Stability of EpFAs at 37°C, neutral pH; format: physicochemical
[2] = test system: P450 metabolites of the ARA cascade / sEH; test: Oxylipin profiling: P450 and sEH metabolites; conditions: for Increase in plasma levels of the infused EpFA vs Ang II infused animals: subcutaneous infusion, corresponding groups
sEH = conditions: cited from earlier work
COX pathway = conditions: kidney; P < 0.05
[3] = test system: angiotensin-II dependent hypertension; conditions: TPPU 0.2 and 0.6 mg/kg; cited from earlier work
Body weight gain = format: in vivo; conditions: Ang II infused mice
LOX pathway = test: Oxylipin profiling: LOX metabolites; format: in vivo, mice; conditions: kidney; TPPU 0.2 mg/kg
[4] = test system: angiotensin-II dependent hypertension; test: Systolic blood pressure; format: in vivo, mice; conditions: overall mixed effects analysis, all days; TPPU alone 0.2 mg/kg in drinking water; P < 0.05
[5] = cited from earlier work

For `CCCCCC1OC1C/C=C\C/C=C\C/C=C\CCCC(=O)O` (stereo not shown) [14, 15-EET, epoxyeicosatrienoic acid], the Stability [1] was “quite stable” and the “Increase in plasma levels of the infused EpFA vs Ang II infused animals” value ([2]; P < 0.05) was “approximately 2 fold”.

For `CCC1OC1C/C=C\C/C=C\C/C=C\C/C=C\C/C=C\CCC(=O)O` (stereo not shown) [19, 20-EDP, epoxydocosapentaenoic acid], the Stability [1] is given as “quite stable”, the “Rate of metabolism by sEH compared to most other fatty acid epoxides tested” value (sEH) is given as “more slowly metabolized” and the “Tissue levels of PGE2 vs Ang II infusion alone” value (COX pathway) is given as “significantly decreased by half”. The “Tissue levels of 19, 20-EDP relative to tissue levels of 14, 15-EET” value ([2]; animals receiving these EpFAs) was 6 times, the “Renal levels of 14, 15-EET vs Ang II infused animals” value ([2]; kidney, TPPU 0.2 mg/kg) was “significantly decreased” and the “Increase in plasma levels of the infused EpFA vs Ang II infused animals” value ([2]; P < 0.05) was “approximately 2 fold”.

In the case of `CCC(=O)N1CCC(NC(=O)Nc2ccc(OC(F)(F)F)cc2)CC1` [TPPU], the “Blood pressure in Ang II hypertension” value [3] is given as “lower blood pressure to near baseline levels”, the Body weight gain (Body weight gain) is given as “did not alter body weight gain” and the “Tissue levels of 15(S)-HETrE vs 19, 20-EDP treatment alone” value (LOX pathway) is given as “increased”. The “Tissue levels of 15-HETE vs 19, 20-EDP treatment alone” value (LOX pathway) was “increased”, the “SBP (percent change from baseline) vs Ang II infused controls” value [4] was “statistically lower SBP” and the “Renal PGD2 vs Ang II infusion and 19, 20-EDP alone” value (COX pathway) was “decreased”. The “Increase in renal DiHOMEs vs 19, 20-EDP alone or Ang II infusion” value ([2]; TPPU 0.2 mg/kg, P < 0.05) was “approximately 3 fold”, the “Renal levels of 19, 20-EDP vs Ang II alone or 19, 20-EDP treated animals” value ([2]; kidney, TPPU 0.2 mg/kg) was “significantly increased” and the “Summed plasma concentration of DiHDPEs vs 19, 20-EDP treatment alone” value ([2]; plasma, TPPU 0.2 mg/kg) was “decreased significantly”.

For `CCCCc1nc(Cl)c(CO)n1Cc1ccc(-c2ccccc2-c2nn[nH]n2)cc1` [losartan], the “Adverse effect on monovalent cation balance” value [5] is listed as “hyperkalemia” and the “BP in normotensive animals” value [5] is listed as “reduced BP”.
